The target in one assay is T1, hKv3.2 (Homo sapiens, UniProt Q96PR1).
T1 construct: expressed in transfected cells
T1 sequence (Q96PR1 1-638): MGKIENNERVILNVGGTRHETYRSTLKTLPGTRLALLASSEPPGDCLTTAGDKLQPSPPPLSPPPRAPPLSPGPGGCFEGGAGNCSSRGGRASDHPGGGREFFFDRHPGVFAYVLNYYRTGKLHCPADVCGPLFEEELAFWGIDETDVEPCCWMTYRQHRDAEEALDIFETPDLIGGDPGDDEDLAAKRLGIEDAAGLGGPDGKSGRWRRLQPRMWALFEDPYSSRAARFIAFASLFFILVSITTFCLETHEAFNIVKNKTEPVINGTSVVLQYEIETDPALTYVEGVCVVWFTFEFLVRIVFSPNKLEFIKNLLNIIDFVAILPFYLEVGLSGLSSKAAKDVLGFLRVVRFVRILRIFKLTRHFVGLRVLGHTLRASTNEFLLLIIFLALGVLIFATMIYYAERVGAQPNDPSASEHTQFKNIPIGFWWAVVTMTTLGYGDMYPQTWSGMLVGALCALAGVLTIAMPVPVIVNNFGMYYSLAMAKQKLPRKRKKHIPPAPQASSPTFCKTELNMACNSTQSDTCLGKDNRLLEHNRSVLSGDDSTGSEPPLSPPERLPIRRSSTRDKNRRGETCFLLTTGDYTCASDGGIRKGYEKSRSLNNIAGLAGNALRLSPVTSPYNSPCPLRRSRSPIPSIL
The assay is described as follows: Automated patch clamp electrophysiology (Patchliner), CHO/Kv3.2 cells. The class given is cell-based. The following applies: 10 μM compound, hKv3.2 in CHO-K1, whole-cell; for activation at 10 µM: peak current at voltage step of −10 mV vs vehicle (0.33% DMSO), read-out: Kv3.2 Activity at 10 μM Potentiation (%); for Kv3.2 Activity at 10 μM Voltage Shift (mV): voltage shift of the IV curve at V1/2. As for the experimental part: (§1) hKv3.1, hKv3.2, hKv3.3, and hKv3.4 were stably expressed in CHO-K1 (Chinese hamster ovary) cells and kept under constant antibiotic selection. For in vitro assays, cells were maintained in appropriate growth medium at 37° C. and 5% CO2 in a humidified incubator.
(§2) hKv3.X expressing cells were plated in T-25 flasks for 3-4 days at 37° C. (no selection antibiotic) prior to use and grown to 80% confluence. Cells were washed twice with PBS (calcium and magnesium free) and detached with a 5-minute treatment at 37° C. with 2-3 mls of Accutase®. Cells were collected, and flask was washed in CHO-SFM II media (Life Technologies Gibco), centrifuged for 2 minutes at ˜110×g and resuspended to obtain a single cell suspension of ˜2-3×10^6 cells/ml.
(§3) The intracellular solution contained the following (in mM): KCl 50, NaCl 10, KF 60, EGTA 20, HEPES 10, adjusted to pH 7.2 with KOH and an osmolarity of 285 mOsmol. Seal enhancer was purchased from Nanion (80 mM NaCl, 3 mM KCl, 10 mM MgCl2, 35 mM CaCl2), 10 mM HEPES, pH7.4, 298 mOsmol. The external solution contained (in mM): NaCl 140, KCl 4, CaCl2) 2, MgCl2 1, HEPES 10, Glucose 5, adjusted to pH7.4 and an osmolarity of 298 mOsmol.
(§4) All compounds were initially tested at 10 uM at a final DMSO concentration of 0.33%. Compounds were dissolved in dimethylsulfoxide (DMSO) at a stock concentration of 30 mM. The compound was further diluted 1:10 to give a stock concentration of 3 mM in DMSO. The final assay solution was diluted 1:300 in External solution to give a final concentration of 10 uM. For the DMSO Control Buffer 30 uL of DMSO was added to 10 mL buffer.
(§5) All electrophysiological recordings were performed at ambient temperature (21-23° C.) using automated patch clamp (Patchliner, Nanion Technologies GmbH) in the whole-cell configuration.
(§6) Cell membrane potentials were held at −80 mV, and currents were evoked by voltage steps (1000 ms duration) from −60 to +60 mV in 10 mV increments. This was performed first with vehicle (0.33% DMSO) and then with 10 uM compound, after a 3-minute incubation period. Data was taken from 4 cells per assay.
(§7) The recordings were analysed and selected using peak current amplitude (>100 pA at the −10 mV voltage step) in the absence of compound to eliminate unsuitable cells from analysis. Peak current amplitude was measured and recorded for each voltage step and data was normalised to the maximum current at +60 mV. The normalised Kv3.x currents following addition of the compound were then compared with the currents recorded prior to compound addition (vehicle control). Positive modulation was determined as % potentiation at the voltage step of −10 mV=[current (cmpd)/current (veh)]*100−100. % potentiation≥50% was considered acceptable. In addition, voltage shift of the IV curve at V1/2 was measured. V1/2 of ≥−5 mV was also considered acceptable. IV curves were plotted in GraphPad Prism (software version 6.0) and fitted with a Boltzmann equation, where V1/2 is the voltage at half-maximal activation.
On the technique in general: Patch clamp records ionic current or voltage across a cell membrane.

For a further assay, the target named is T2, hKv3.1 (Homo sapiens, UniProt P48547).
T2 construct: expressed in transfected cells
T2 sequence (P48547 1-511): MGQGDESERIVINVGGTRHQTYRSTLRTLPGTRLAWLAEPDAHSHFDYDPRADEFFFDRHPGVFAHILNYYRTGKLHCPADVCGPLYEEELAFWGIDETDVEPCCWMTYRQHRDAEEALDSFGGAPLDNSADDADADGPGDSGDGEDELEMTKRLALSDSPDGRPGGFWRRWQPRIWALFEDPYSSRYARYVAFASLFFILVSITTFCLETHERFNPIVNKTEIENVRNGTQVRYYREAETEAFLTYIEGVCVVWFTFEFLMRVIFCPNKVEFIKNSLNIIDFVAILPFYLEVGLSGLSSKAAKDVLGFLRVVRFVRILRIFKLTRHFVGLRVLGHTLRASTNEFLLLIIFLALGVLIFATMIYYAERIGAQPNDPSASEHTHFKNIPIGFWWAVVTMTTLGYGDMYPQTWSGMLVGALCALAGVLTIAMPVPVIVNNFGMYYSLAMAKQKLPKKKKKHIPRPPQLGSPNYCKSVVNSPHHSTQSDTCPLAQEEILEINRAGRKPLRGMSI
Put plainly: Automated patch clamp electrophysiology (Patchliner), CHO/Kv3.1 cells. The following applies: 10 μM compound, hKv3.1 in CHO-K1, whole-cell; for Kv3.1 Activity at 10 μM Potentiation (%): peak current at voltage step of −10 mV vs vehicle (0.33% DMSO); for Kv3.1 Activity at 10 μM Voltage Shift (mV): voltage shift of the IV curve at V1/2. The class given is cell-based. As for the experimental part: as §1, §2, §3, §4, §5, §6, §7

In the case of `COc1cc(Oc2cc(N3C(=O)NC(C)(C)C3=O)ncn2)ccc1C` [Example 1, 3-[6-(3-methoxy-4-methyl-phenoxy)pyrimidin-4-yl]-5,5-dimethyl-imidazolidine-2,4-dione], on hKv3.2, the activation at 10 µM was found to be 25% and the “Kv3.2 Activity at 10 μM Voltage Shift (mV)” value is on record as −4.3 mV. Besides, on hKv3.1, the “Kv3.1 Activity at 10 μM Potentiation (%)” value was found to be 45% and the “Kv3.1 Activity at 10 μM Voltage Shift (mV)” value is recorded as −5.5 mV.

Turning to `COc1cc(Oc2cc(N3C(=O)NC(C)(C)C3=O)ncn2)ccc1F` [Example 13, 3-[6-(3-methoxy-4-fluoro-phenoxy)pyrimidin-4-yl]-5,5-dimethyl-imidazolidine-2,4-dione], on hKv3.2, the activation at 10 µM is 86% and the “Kv3.2 Activity at 10 μM Voltage Shift (mV)” value is recorded as −9.2 mV. In addition, at hKv3.1, the “Kv3.1 Activity at 10 μM Potentiation (%)” value is given as 40% and the “Kv3.1 Activity at 10 μM Voltage Shift (mV)” value was −2.7 mV.

`COc1cc(Oc2cc(N3C(=O)NC4(CCCC4)C3=O)ncn2)ccc1F` [Example 14, 3-[6-(4-fluoro-3-methoxy-phenoxy)pyrimidin-4-yl]-1,3-diazaspiro[4.4]nonane-2,4-dione]: at hKv3.2, the activation at 10 µM was 42% and the “Kv3.2 Activity at 10 μM Voltage Shift (mV)” value was −1.1 mV. For the same compound, at hKv3.1, the “Kv3.1 Activity at 10 μM Potentiation (%)” value turned out to be 43% and the “Kv3.1 Activity at 10 μM Voltage Shift (mV)” value was −2.3 mV.

Take `COc1cc(Oc2cc(N3C(=O)NC4(CCCCC4)C3=O)ncn2)ccc1F` [Example 15, 3-[6-(4-fluoro-3-methoxy-phenoxy)pyrimidin-4-yl]-1,3-diazaspiro[4.5]decane-2,4-dione]: at hKv3.2, the activation at 10 µM was determined as 1% and the “Kv3.2 Activity at 10 μM Voltage Shift (mV)” value is −0.3 mV. At hKv3.1, the “Kv3.1 Activity at 10 μM Potentiation (%)” value is 17% and the “Kv3.1 Activity at 10 μM Voltage Shift (mV)” value is recorded as −2.7 mV.

For `Cc1ccc(Oc2cc(N3C(=O)NC(C)(C)C3=O)ncn2)cc1F` [Example 16, 3-[6-(3-fluoro-4-methyl-phenoxy)pyrimidin-4-yl]-5,5-dimethyl-imidazolidine-2,4-dione], at hKv3.2, the activation at 10 µM is 24% and the “Kv3.2 Activity at 10 μM Voltage Shift (mV)” value is on record as −2.8 mV. Also, on hKv3.1, the “Kv3.1 Activity at 10 μM Potentiation (%)” value turned out to be 63% and the “Kv3.1 Activity at 10 μM Voltage Shift (mV)” value was −4.2 mV.

Regarding `Cc1ccc(Oc2cc(N3C(=O)NC(C)(C)C3=O)ncn2)c2c1OCC21CC1` [Example 47, 5,5-dimethyl-3-[6-(7-methylspiro[2H-benzofuran-3,1′-cyclopropane]-4-yl)oxypyrimidin-4-yl]imidazolidine-2,4-dione], on hKv3.2, the activation at 10 µM was found to be 54% and the “Kv3.2 Activity at 10 μM Voltage Shift (mV)” value is listed as −4.9 mV. On hKv3.1, the “Kv3.1 Activity at 10 μM Potentiation (%)” value was determined as 36% and the “Kv3.1 Activity at 10 μM Voltage Shift (mV)” value is −2.8 mV.

Turning to `COc1cc(Oc2ccnc(N3C(=O)NC4(CCCCC4)C3=O)n2)ccc1C` [Example 50, 3-[4-(3-methoxy-4-methyl-phenoxy)pyrimidin-2-yl]-1,3-diazaspiro[4.5]decane-2,4-dione], on hKv3.2, the activation at 10 µM was -7% and the “Kv3.2 Activity at 10 μM Voltage Shift (mV)” value is reported as “+1.6 mV”. On hKv3.1, the “Kv3.1 Activity at 10 μM Potentiation (%)” value was determined as 2% and the “Kv3.1 Activity at 10 μM Voltage Shift (mV)” value is −1.5 mV.

On to `COc1cc(Oc2cncc(N3C(=O)NC(C)(C)C3=O)n2)ccc1C` [Example 53, 3-[6-(3-methoxy-4-methyl-phenoxy)pyrazin-2-yl]-5,5-dimethyl-imidazolidine-2,4-dione], for which, on hKv3.2, the activation at 10 µM stood at 49% and the “Kv3.2 Activity at 10 μM Voltage Shift (mV)” value is on record as −6.0 mV. Further, on hKv3.1, the “Kv3.1 Activity at 10 μM Potentiation (%)” value was 52% and the “Kv3.1 Activity at 10 μM Voltage Shift (mV)” value is reported as −4.0 mV.

On to `CC[C@H]1NC(=O)N(c2nccc(Oc3ccc(C)c(OC)c3)n2)C1=O` [Example 56, (5R)-5-ethyl-3-[4-(3-methoxy-4-methyl-phenoxy)pyrimidin-2-yl]imidazolidine-2,4-dione], for which, at hKv3.2, the activation at 10 µM amounted to 35% and the “Kv3.2 Activity at 10 μM Voltage Shift (mV)” value was −4.6 mV. In addition, at hKv3.1, the “Kv3.1 Activity at 10 μM Potentiation (%)” value worked out at 26% and the “Kv3.1 Activity at 10 μM Voltage Shift (mV)” value is given as −5.0 mV.

As to `CC[C@H]1NC(=O)N(c2nccc(Oc3ccccc3-c3ccccc3)n2)C1=O` [Example 58, (5R)-5-ethyl-3-[4-(2-phenylphenoxy)pyrimidin-2-yl]imidazolidine-2,4-dione], on hKv3.2, the activation at 10 µM was determined as 39% and the “Kv3.2 Activity at 10 μM Voltage Shift (mV)” value is listed as −4.6 mV. For the same compound, on hKv3.1, the “Kv3.1 Activity at 10 μM Potentiation (%)” value is on record as 61% and the “Kv3.1 Activity at 10 μM Voltage Shift (mV)” value is −6.9 mV.

In the case of `COc1cc(Oc2nccc(N3C(=O)NC(C)(C)C3=O)n2)ccc1C` [Example 63, 3-[2-(3-methoxy-4-methyl-phenoxy)pyrimidin-4-yl]-5,5-dimethyl-imidazolidine-2,4-dione], at hKv3.2, the activation at 10 µM came out at 25% and the “Kv3.2 Activity at 10 μM Voltage Shift (mV)” value was −2.3 mV. At hKv3.1, the “Kv3.1 Activity at 10 μM Potentiation (%)” value is listed as 50% and the “Kv3.1 Activity at 10 μM Voltage Shift (mV)” value is given as −4.2 mV.

For `COc1cc(Oc2nccc(N3C(=O)NC(C)(C)C3=O)n2)ccc1F` [Example 64, 3-[2-(3-methoxy-4-fluoro-phenoxy)pyrimidin-4-yl]-5,5-dimethyl-imidazolidine-2,4-dione], on hKv3.1, the “Kv3.1 Activity at 10 μM Potentiation (%)” value is 34% and the “Kv3.1 Activity at 10 μM Voltage Shift (mV)” value is listed as −1.8 mV.

Take `COc1cc(Oc2nccc(N3C(=O)NC(C)(C)C3=O)n2)ccc1Cl` [Example 66, 3-[2-(4-chloro-3-methoxy-phenoxy)pyrimidin-4-yl]-5,5-dimethyl-imidazolidine-2,4-dione]: on hKv3.2, the activation at 10 µM was 54% and the “Kv3.2 Activity at 10 μM Voltage Shift (mV)” value is on record as −3.5 mV.

Turning to `COc1cc(Oc2cnnc(N3C(=O)NC(C)(C)C3=O)c2)ccc1C` [Example 77, 3-[5-(3-methoxy-4-methyl-phenoxy)pyridazin-3-yl]-5,5-dimethyl-imidazolidine-2,4-dione], on hKv3.1, the “Kv3.1 Activity at 10 μM Potentiation (%)” value stood at 26% and the “Kv3.1 Activity at 10 μM Voltage Shift (mV)” value was −2.4 mV.

Values taken from patent US12139473B2, “Substituted-N-heteroaryl compounds and uses thereof” (Bionomics Limited, priority 2019, dated 2024).
